Read-outs that look alike come from different tables or passages of the source.

Data set [1] deals with human keratinocytes and fibroblasts. The conditions noted are these: C60 suspension; cited from earlier work.
Data set [2] deals with human keratinocytes. The conditions noted are these: after 6 hours; 32,000 dpm, 1.3 μM; cited from earlier work.
For data set [3], the system named is anti-fullerene antibodies binding to 1-RSA. Kind of data set: ELISA inhibition of antibody binding to 1-RSA. Also on record: species or system mouse. How it is done: After a total of three immunizations at 3-week intervals, confirmation of an immune response was determined by direct ELISA in which polystyrene plates (Corning) were coated with the 1-RSA conjugate (0.5 mg/ml in 0.1 M NaHCO3, pH 9), and binding of preimmune and immune sera were determined by standard procedures. Development was with horseradish peroxidase-labeled goat anti-mouse IgG (Sigma), which tested negative for crossreaction with an IgM preparation. The substrate used was o-phenylenediamine.
(§1) Specificity of the response was determined by two procedures: double diffusion in agar (22) and competitive inhibition, as determined by ELISA using RSA and BSA conjugates of the fullerenes, as well as the oligo lysine derivatives. The fullerenes themselves were not soluble enough in aqueous solutions.
The adenosine conjugate had been synthesized using the same strategy used for the fullerenes, i.e., linkage to the epsilon amino groups of the lysines via an N-hydroxysuccinimide ester derivative.
Specificity also was determined by ELISA inhibition studies (FIG. 6). Binding to 1-RSA was inhibited by 1-RSA, 1-BSA, 1-TG, 3-pentalysine, 2-pentalysine, and 1-pentalysine. Inhibition by 2-pentalysine is additional evidence for nonparticipation of the linker group, i.e., specificity for the C60 moiety. […]
A general note: An ELISA detects its analyte on a solid surface through an enzyme-linked reagent.

The subject of data set [4] is anti-fullerene antibodies (immune serum). Kind of data set: Specificity of the immune response by double diffusion in agar. The data set is classed as binding, mouse. As to the method: as §1
Specificity of the immune response first was determined by double diffusion in agar.
Confluent lines of precipitation were seen associated with wells 1-5 with a spur between wells 2 and 3, pointing toward 3, i.e., toward 1-BSA. This finding is evidence of a population of antibodies reactive with both 1 and 2, with an additional population specific for the carrier protein of the immunogen, 1-TG. The identity of precipitation with 1 and 2 is evidence for the lack of participation of the linker group, which is missing from 2. […] Anti-TG also could be detected by ELISA (below).

A short description of data set [5]: Air sensitivity. The format is physicochemical. The source says: While previous work reported in the literature performed HPLC under aerobic conditions, (see for example Funasaka et al. 1995) these studies determined that anaerobic controls better preserved the fraction of Gd@C82 in solution. […] The fraction containing the Gd@C82 was identified using MS. The solubility of fullerenes in o-xylene is about three times that of toluene and this greatly increases the ratio of fullerenes in solution to those retained on the stationary phase. Therefore, the capacity or amount of fullerenes purified per injection was very large. Each injection contained 2 ml of saturated fullerene o-xylene solution (about 30 mg of fullerenes).

The nature of data set [6]: Atomic force microscopy of antibody binding to SWNT. As to the method:
C60 Antibodies on SWNTs were directly imaged by atomic force microscopy. SWNT ropes on mica were initially imaged, the surface was then exposed to antibody solution, and finally; the same SWNT was imaged again in air. This sequence distinguishes any preexisting surface particles from bound antibodies. Three drops of aqueous SWNT suspension (0.064 mg/mL in Triton 100×surfactant, from Tubes@Rice) were spun onto a freshly cleaved mica surface. One drop of fullerene-specific antibody(0.00125 mg/mL in 10 mM phosphate buffer, 150 mM NaCl, pH 7.3) was then deposited onto the surface. Liquid was removed by glass piper after 8 min, and the sample was dried in air. The sample was then washed with 60 drops of water while spinning to remove weakly bound, physisorbed antibody layers. The same SWNT was then imaged in FIG. 24. A significant number of objects are adsorbed on the nanotube, in previously clean regions, and on the mica substrate. […] The mica antibody images are similar in height, width, and dimpled appearance to those previously reported for monoclonal mouse IgG1 on mica (10).
In a separate experiment, we mixed an aqueous SWNT suspension with an anti-fullerene antibody solution and then imaged the SWNTs on mica. One drop of antibody solution (0.25 mg/mL) was mixed with 5 mL of SWNT suspension (0.064 mg/ml) and cooled at 5° C. for 2 h. Three drops of this mixture were spun on a freshly cleaved […] and imaged without washing.

With `c12c3c4c5c1c1c6c7c2c2c8c3c3c9c4c4c%10c5c5c1c1c6c6c%11c7c2c2c7c8c3c3c8c9c4c4c9c%10c5c5c1c1c6c6c%11c2c2c7c3c3c8c4c4c9c5c1c1c6c2c3c41` [Compound C60, fullerene-C60], the “effect on the rate of thymidine uptake” value in data set [1] was “no effect”. For the same molecule, in data set [2], the “applied radioactivity taken up by the keratinocytes” value is given as “approximately 50%”.
As for bovine thyroglobulin [TG], the “inhibition of binding to 1-RSA (ELISA)” value in data set [3] is on record as “No inhibition”. Moreover, the “precipitation in double diffusion in agar” value in data set [4] (TG solution diluted 5-fold) is “line of precipitation was seen”; in data set [4] (undiluted antigen solutions) it was “no visible precipitate”.
rabbit serum albumin [RSA]: the “inhibition of binding to 1-RSA (ELISA)” value in data set [3] was “No inhibition”.
Gd@C82(OH)x: the air sensitivity result in data set [5] is recorded as “does not appear to be air sensitive”.

B1: fullerene-specific antibody: monoclonal antibody produced by hybridoma 1-10F-8A (ATCC PTA-279) (antibody, V domains shown)
VH: MGCSWGMLFLLSITAGVHCQVHLQQSGPELVRPGASVKISCKTSGYVFSSSWMNWVKQRPGQGLKWIGRIYPGNGNTNYNEKFKGKATLTADKSSNTAYMQLSSLTSVDSAVYFCATSSAYWGQGTLLTVSA
VL: DIQMTQTTSSLSASLGDRVTFSCSASQDINNYLNWYQQKPDGTIKLLIYYTSSLRSGVPSRFSGSGSGTDYSLTINNLEPEDIATYFCQQYSRLPFTFGSGTKLEIKRK
modifications: Mouse [murine]; Mouse
As to B1, the “binding of antibody to SWNT (AFM image)” value in data set [6] was “antibodies on the nanotube and on mica”; in data set [6] (listed as anti-fullerene/anti-nanotube antibody) it was “bound to a nanotube”; in data set [6] (listed as monoclonal IgG C60-specific antibody), “specifically binds”.

Source of the values: patent US20030113940A1, “Antibodies specific for nanotubes and related methods and compositions” (priority 2001, published 2003).
